What all share (type): functional
Experiment [1] is filed under the species Mus musculus. As to the kind of experiment: Compound (0.01 ug/mL) was tested for their immunomodulatory activity in vitro using lymphocyte transformation test.
The species entered for experiment [2] is Mus musculus. Description: Compound (1.0 ug/mL) was tested for their immunomodulatory activity in vitro using mixed lymphocyte reaction.
For experiment [3], the species on record is Mus musculus. As to the kind of experiment: Compound (0.01 ug/mL) was tested for their immunomodulatory activity in vitro using mixed lymphocyte reaction.
For experiment [4], the species on record is Mus musculus. Description: Compound (10 ug/mL) was tested for their immunomodulatory activity in vitro using mixed lymphocyte reaction.
The species entered for experiment [5] is Mus musculus. As to the kind of experiment: Compound (1.0 ug/mL) was tested for their immunomodulatory activity in vitro using lymphocyte transformation test.
Experiment [6] is filed under the species Mus musculus. As to the kind of experiment: Compound (0.10 ug/mL) was tested for their immunomodulatory activity in vitro using lymphocyte transformation test.
For experiment [7], the species on record is Mus musculus. Description: Compound (0.10 ug/mL) was tested for their immunomodulatory activity in vitro using mixed lymphocyte reaction.
The species entered for experiment [8] is Mus musculus. Description: Compound (10 ug/mL) was tested for their immunomodulatory activity in vitro using lymphocyte transformation test.

The results in this text go back to ChEMBL document CHEMBL1132895, “Immunomodulatory activity of hexapeptides related to proline rich peptide from colostrum” (2000).

Non-standard residues stand in square brackets, D forms with d. Residues, ends and D or L forms follow the SMILES beside them. Nva = CCC[C@H](N)C(=O)O; Sar = CNCC(=O)O

In the case of `CC(C)[C@H](NC(=O)[C@@H](N)Cc1ccc(O)cc1)C(=O)N1CCC[C@H]1C(=O)NCC(=O)N[C@@H](Cc1ccccc1)C(=O)N(C)CC(=O)O` (H-YVPGF[Sar]-OH), the Stimulation index is given as 0.83 in experiment [1]; 0.72 in experiment [2]; 0.71 in experiment [3]; 0.92 in experiment [4]; 1.9 in experiment [5]; 0.61 in experiment [6]. Besides, the Stimulation index in experiment [7] worked out at 0.8; in experiment [8], 1.6.
In the case of `CC(C)C[C@H](NC(=O)C1CCCN1C(=O)[C@@H](NC(=O)C(N)Cc1ccc(O)cc1)C(C)C)C(=O)N[C@@H](Cc1ccccc1)C(=O)N1CCCC1C(=O)O` (single isomer, unassigned; form 1), the Stimulation index in experiment [1] turned out to be 1.1; in experiment [5] it was 0.88; in experiment [6], 1.08; in experiment [8], 0.82.
Consider `CC(C)C[C@H](NC(=O)C1CCCN1C(=O)[C@@H](NC(=O)C(N)Cc1ccc(O)cc1)C(C)C)C(=O)N[C@@H](Cc1ccccc1)C(=O)N1CCCC1C(=O)O` (single isomer, unassigned; form 2), for which the Stimulation index in experiment [1] stood at 0.78; in experiment [5], 1.27; in experiment [6] it was 0.86; in experiment [8] it was 0.95.
Take H-YVPGFP-NH2: the Stimulation index in experiment [1] is 0.83; in experiment [5] it was 1.1; in experiment [6], 0.85; in experiment [8], 0.84.
In the case of `CC(C)[C@H](NC(=O)[C@@H](N)Cc1ccc(O)cc1)C(=O)N1CCC[C@H]1C(=O)N(C)CC(=O)N[C@@H](Cc1ccccc1)C(=O)N1CCC[C@H]1C(=O)O` (H-YVP[Sar]FP-OH), the Stimulation index in experiment [1] is 1.41; in experiment [5] it was 1.37; in experiment [6], 1.21; in experiment [8], 0.96.
Turning to `CC(C)C[C@H](NC(=O)[C@@H]1CCCN1C(=O)[C@@H](NC(=O)[C@@H](N)Cc1ccc(O)cc1)C(C)C)C(=O)N[C@@H](Cc1ccccc1)C(=O)N(C)CC(=O)O` (H-YVPLF[Sar]-OH), the Stimulation index stood at 0.9 in experiment [1], 1.21 in experiment [5], 0.86 in experiment [6] and 1.2 in experiment [8].
For the molecule `CC(C)[C@H](NC(=O)[C@@H](N)Cc1ccc(O)cc1)C(=O)N1CCC[C@H]1C(=O)NCC(=O)N[C@@H](Cc1ccccc1)C(=O)N1CCC[C@H]1C(=O)O`, the Stimulation index in experiment [1] is reported as 1.13; in experiment [2], 0.85; in experiment [3], 0.72; in experiment [4], 1; in experiment [5], 1.02; in experiment [6], 1.05. Besides, the Stimulation index in experiment [7] came to 0.79; in experiment [8] it was 0.75.
In the case of `CC(C)C[C@H](NC(=O)CN(C)C(=O)[C@@H](NC(=O)[C@@H](N)Cc1ccc(O)cc1)C(C)C)C(=O)N[C@@H](Cc1ccccc1)C(=O)N1CCCC1C(=O)O` (single isomer, unassigned), the Stimulation index in experiment [1] is 0.88; in experiment [5], 1.24; in experiment [6], 0.97; in experiment [8], 1.12.
As to `CC(C)[C@H](NC(=O)[C@@H](N)Cc1ccc(O)cc1)C(=O)N1CCCC1C(=O)NCC(=O)NC(Cc1ccccc1)C(=O)N1CCCC1C(=O)O` (single isomer, unassigned; form 2), the Stimulation index in experiment [1] was found to be 0.97; in experiment [2], 1.31; in experiment [3], 0.96; in experiment [4], 1; in experiment [5], 1.17; in experiment [6], 1.29. Moreover, the Stimulation index is reported as 0.9 in experiment [7] and 1.4 in experiment [8].
`C[C@]12C=CC(=O)C=C1CCC1[C@@H]2[C@@H](O)C[C@@]2(C)[C@H]1CC[C@]2(O)C(=O)CO` (single isomer, unassigned) [PREDNISOLONE] showed a Stimulation index in experiment [7] of 0.3.
Regarding `CCC[C@H](NC(=O)[C@@H](N)Cc1ccc(O)cc1)C(=O)N1CCC[C@H]1C(=O)NCC(=O)N[C@@H](Cc1ccccc1)C(=O)N1CCC[C@H]1C(=O)O` (H-Y[Nva]PGFP-OH), the Stimulation index is reported as 0.86 in experiment [1], 1.15 in experiment [5], 1.06 in experiment [6] and 0.73 in experiment [8].
Turning to H-YLPGFP-OH, the Stimulation index is reported as 0.75 in experiment [1]; 1.2 in experiment [2]; 0.63 in experiment [3]; 1.24 in experiment [4]; 0.62 in experiment [5]; 0.64 in experiment [6]. For the same molecule, the Stimulation index in experiment [7] came out at 0.5; in experiment [8], 0.59.
Take `CC(C)[C@H](NC(=O)[C@@H](N)Cc1ccc(O)cc1)C(=O)N1CCCC1C(=O)NCC(=O)NC(Cc1ccccc1)C(=O)N1CCCC1C(=O)O` (single isomer, unassigned; form 1): the Stimulation index in experiment [1] came out at 0.89; in experiment [5], 0.96; in experiment [6], 1.02; in experiment [8], 1.05.
